Reference: patent US20250129069A1, “TRIAZOLO WRN INHIBITORS” (Nimbus Wadjet, Inc., priority 2023, published 2025)
Like-named read-outs stand apart in the source and are kept apart here.

System: p21 induction in HCT 116 cells
Assay: p21 induction in cells (In-Cell Western, p21/GAPDH ratio)
Format: cell-based
Conditions: 24 h compound incubation, read-out: p21_EC50
Procedure: The colon carcinoma cell line HCT 116 was obtained from ATCC and cultured in growth medium consisting of Mccoy's 5A Medium (Gibco 16600108) supplemented with 10% FBS (Transgene FS201-02) and 100 units/mL penicillin-streptomycin (Gibco 15140122) and maintained at 37° C. under 5% CO2. On the day of seeding, 2,000 cells in 30 μL of culture media were plated per well to Poly-D-Lysine 384 Well Black Clear Plates (Biocoat 356663) and incubated overnight at 37° C. under 5% CO2. The following day, compounds were serially diluted in DMSO for a total of 11 test concentrations. The typical starting concentration of compounds was 10 μM with 2-fold dilutions. Next, 150 nL of diluted compound was added in duplicate to the assay plate, using an Echo 655 (Labcyte). The plate was centrifuged at 500 RPM for 1 min and then incubated at 37° C. under 5% CO2 for 24 h. After 24 h, medium was removed, and cells were fixed by adding 40 μL of 4% paraformaldehyde solution to each well and incubated for 20 min at room temperature. The plate was then washed 4 times with 100 μL per well of wash buffer (PBS with 0.1% Tween-20) using a microplate washer. Next, 30 μL of ice-cold methanol was added to each well and the plate was incubated at −20° C. for 10 min. The plate was washed 4 times with 100 μL per well of wash buffer by a microplate washer, then 30 μL per well of blocking buffer ((Intercept PBS blocking buffer (LI-COR 927-70001) with 0.05% Tween-20)) was added and the plate was incubated at room temperature with shaking for 2 h. Next, to each test well, 20 μL of primary antibody solution (p21 Wafl/CIP (12D1) RabbitmAb (Cell Signaling Technologies 2947) diluted 1:1000 and GAPDH (D4C6R) Mouse mAb (Cell Signaling Technologies 97166) diluted 1:2000 in blocking buffer) was added and the plate was placed at 4° C., overnight. The following day, the plate was washed 5 times with 100 μL per well of wash buffer using a microplate washer for 5 min. 20 μL per well of secondary antibody (IRDye 680CW Goat anti-Mouse IgG (H+L) (LI-COR 926-68070) diluted 1:2000 in Blocking Buffer and IRDye 800CW Goat anti-Rabbit IgG (H+L) (LI-COR 926-32211) diluted 1:2000 in Blocking Buffer) was then added and the plate was stored for 2 h in the dark at room temperature with shaking. The plate was then washed 4 times with 100 μL per well of wash buffer again using a microplate washer. Finally, the p21 signal and the GAPDH signal were quantified using a LI-COR Odyssey CLx Imager machine reading at 800 nm and 700 nm, respectively. Each plate contained DMSO control (low control) and an internal reference WRN inhibitor (high control) respectively. For quantitation, the 800 nm/700 nm ratio was calculated for each well to give fold p21 induction and then percent activation for each compound well was calculated as follows (100×(ratio cpd well-ratio low control)/(ratio high control−ratio low control). EC50 values for each compound was generated after non-linear regression curve fitting using commercially available software.

SMILES: CCc1c(N2CCN(C(=O)c3ncnc(C)c3O)CC2)c(=O)c2nn(C3=CCOCC3)nc2n1CC(=O)NC12CC(C(C)C)(C1)C2 [Compound I-38, 2-[2-(3,6-dihydro-2H-pyran-4-yl)-5-ethyl-6-[4-(5-hydroxy-6-methylpyrimidine-4-carbonyl)piperazin-1-yl]-7-oxo-2H,4H,7H-[1,2,3]triazolo[4,5-b]pyridin-4-yl]-N-[3-(propan-2-yl)bicyclo[1.1.1]pentan-1-yl]acetamide]
- EC50 (Homo sapiens): 0.5 to 2 µM

SMILES: CCc1c(N2CCN(C(=O)c3ncnc(C)c3O)[C@H]3CC[C@@H]32)c(=O)c2nn(-c3ccnc(OC)c3)nc2n1CC(=O)Nc1ccc(C(F)(F)F)cc1Cl [Compound I-55, N-[2-chloro-4-(trifluoromethyl)phenyl]-2-{5-ethyl-6-[(1S,6S)-5-(5-hydroxy-6-methylpyrimidine-4-carbonyl)-2,5-diazabicyclo[4.2.0]octan-2-yl]-2-(2-methoxypyridin-4-yl)-7-oxo-2H,4H,7H-[1,2,3]triazolo[4,5-b]pyridin-4-yl}acetamide]
- EC50 (Homo sapiens): ≤ 0.5 µM

SMILES: CCc1c(N2CCN(C(=O)c3ncnc(C)c3O)[C@H]3CC[C@@H]32)c(=O)c2nn(C3=CCC(OC)CC3)nc2n1CC(=O)NC12CC(C3CC3)(C1)C2 (stereo partly drawn) [Compound I-173, N-{3-cyclopropylbicyclo[1.1.1]pentan-1-yl}-2-{5-ethyl-6-[(1S,6S)-5-(5-hydroxy-6-methylpyrimidine-4-carbonyl)-2,5-diazabicyclo[4.2.0]octan-2-yl]-2-(4-methoxycyclohex-1-en-1-yl)-7-oxo-2H,4H,7H-[1,2,3]triazolo[4,5-b]pyridin-4-yl}acetamide]
- EC50 (Homo sapiens): ≤ 0.5 µM

SMILES: CCc1c(N2CCN(C(=O)c3ncnc(C)c3O)[C@H]3CC[C@@H]32)c(=O)c2nn(-c3ccn(C4CC4)n3)nc2n1CC(=O)NC12CC(C(C)C)(C1)C2 [Compound I-60, 2-[2-(1-cyclopropyl-1H-pyrazol-3-yl)-5-ethyl-6-[(1S,6S)-5-(5-hydroxy-6-methylpyrimidine-4-carbonyl)-2,5-diazabicyclo[4.2.0]octan-2-yl]-7-oxo-2H,4H,7H-[1,2,3]triazolo[4,5-b]pyridin-4-yl]-N-[3-(propan-2-yl)bicyclo[1.1.1]pentan-1-yl]acetamide]
- EC50 (Homo sapiens): ≤ 0.5 µM

SMILES: CCc1c(N2CCN(C(=O)c3ncnc(C)c3O)[C@H]3CC[C@@H]32)c(=O)c2nn(-c3ccnc(C(F)F)c3)nc2n1CC(=O)NC12CC(C3CC3)(C1)C2 [Compound I-182, N-{3-cyclopropylbicyclo[1.1.1]pentan-1-yl}-2-{2-[2-(difluoromethyl)pyridin-4-yl]-5-ethyl-6-[(1S,6S)-5-(5-hydroxy-6-methylpyrimidine-4-carbonyl)-2,5-diazabicyclo[4.2.0]octan-2-yl]-7-oxo-2H,4H,7H-[1,2,3]triazolo[4,5-b]pyridin-4-yl}acetamide]
- EC50 (Homo sapiens): ≤ 0.5 µM

SMILES: CCc1c(N2CCN(C(=O)c3ncnc(C)c3O)[C@H]3CC[C@@H]32)c(=O)c2nn(-c3ccnc(OC)c3)nc2n1CC(=O)NC12CC(C3CCC3)(C1)C2 [Compound I-62, N-{3-cyclobutylbicyclo[1.1.1]pentan-1-yl}-2-{5-ethyl-6-[(1S,6S)-5-(5-hydroxy-6-methylpyrimidine-4-carbonyl)-2,5-diazabicyclo[4.2.0]octan-2-yl]-2-(2-methoxypyridin-4-yl)-7-oxo-2H,4H,7H-[1,2,3]triazolo[4,5-b]pyridin-4-yl}acetamide]
- EC50: ≤ 0.5 µM

SMILES: CCc1c(N2CCN(C(=O)c3c(OC)ccc4ncoc34)[C@H]3CC[C@@H]32)c(=O)c2nn(C3=CCOCC3)nc2n1CC(=O)NC12CC(C3CC3)(C1)C2 [Compound I-192, N-{3-cyclopropylbicyclo[1.1.1]pentan-1-yl}-2-[2-(3,6-dihydro-2H-pyran-4-yl)-5-ethyl-6-[(1S,6S)-5-(6-methoxy-1,3-benzoxazole-7-carbonyl)-2,5-diazabicyclo[4.2.0]octan-2-yl]-7-oxo-2H,4H,7H-[1,2,3]triazolo[4,5-b]pyridin-4-yl]acetamide]
- EC50 (Homo sapiens): ≤ 0.5 µM

SMILES: CCc1c(N2CCN(C(=O)c3ncnc(C)c3O)[C@H]3CC[C@@H]32)c(=O)c2nn(-c3ccnc(C(F)(F)F)c3)nc2n1CC(=O)NC12CC(C3CC3)(C1)C2 [Compound I-176, N-{3-cyclopropylbicyclo[1.1.1]pentan-1-yl}-2-{5-ethyl-6-[(1S,6S)-5-(5-hydroxy-6-methylpyrimidine-4-carbonyl)-2,5-diazabicyclo[4.2.0]octan-2-yl]-7-oxo-2-[2-(trifluoromethyl)pyridin-4-yl]-2H,4H,7H-[1,2,3]triazolo[4,5-b]pyridin-4-yl}acetamide]
- EC50 (Homo sapiens): ≤ 0.5 µM

SMILES: CCc1c(N2CCN(C(=O)c3ncnc(C)c3O)[C@H]3CC[C@@H]32)c(=O)c2nn(-c3ccnc(OC)c3)cc2n1CC(=O)NC12CC(C3CC3)(C1)C2 [Compound I-188, N-{3-cyclopropylbicyclo[1.1.1]pentan-1-yl}-2-{5-ethyl-6-[(1S,6S)-5-(5-hydroxy-6-methylpyrimidine-4-carbonyl)-2,5-diazabicyclo[4.2.0]octan-2-yl]-2-(2-methoxypyridin-4-yl)-7-oxo-2H,4H,7H-pyrazolo[4,3-b]pyridin-4-yl}acetamide]
- EC50 (Homo sapiens): 0.5 to 2 µM

SMILES: CCc1c(N2CCN(C(=O)c3c(COC)cccc3OC)[C@H]3CC[C@@H]32)c(=O)c2nn(C3=CCOCC3)nc2n1CC(=O)NC12CC(C3CC3)(C1)C2 [Compound I-212, N-{3-cyclopropylbicyclo[1.1.1]pentan-1-yl}-2-[2-(3,6-dihydro-2H-pyran-4-yl)-5-ethyl-6-[(1S,6S)-5-[2-methoxy-6-(methoxymethyl)benzoyl]-2,5-diazabicyclo[4.2.0]octan-2-yl]-7-oxo-2H,4H,7H-[1,2,3]triazolo[4,5-b]pyridin-4-yl]acetamide]
- EC50 (Homo sapiens): 0.5 to 2 µM

SMILES: CCc1c(N2CCN(C(=O)c3c(F)cnc(OC)c3O)[C@H]3CC[C@@H]32)c(=O)c2nn(C3=CCOCC3)nc2n1CC(=O)NC12CC(C3CC3)(C1)C2 [Compound I-183, N-{3-cyclopropylbicyclo[1.1.1]pentan-1-yl}-2-[2-(3,6-dihydro-2H-pyran-4-yl)-5-ethyl-6-[(1S,6S)-5-(5-fluoro-3-hydroxy-2-methoxypyridine-4-carbonyl)-2,5-diazabicyclo[4.2.0]octan-2-yl]-7-oxo-2H,4H,7H-[1,2,3]triazolo[4,5-b]pyridin-4-yl]acetamide]
- EC50 (Homo sapiens): ≤ 0.5 µM

SMILES: CCc1c(N2CCN(C(=O)c3ncnc(C)c3O)[C@H]3CCC[C@@H]32)c(=O)c2nn(-c3ccnc(OC)c3)nc2n1CC(=O)NC12CC(C3CC3)(C1)C2 [Compound I-33, 2-{6-[(4aS,7aS)-4-(5-hydroxy-6-methylpyrimidine-4-carbonyl)-octahydro-1H-cyclopenta[b]pyrazin-1-yl]-5-ethyl-2-(2-methoxypyridin-4-yl)-7-oxo-2H,4H,7H-[1,2,3]triazolo[4,5-b]pyridin-4-yl}-N-{3-cyclopropylbicyclo[1.1.1]pentan-1-yl}acetamide]
- EC50 (Homo sapiens): ≤ 0.5 µM

SMILES: CCc1c(N2CCN(C(=O)c3ncnc(C)c3O)[C@H]3CCC[C@@H]32)c(=O)c2nn(C3=CCOCC3)nc2n1CC(=O)NC12CC(C3CC3)(C1)C2 [Compound I-39, 2-{6-[(4aS,7aS)-4-(5-hydroxy-6-methylpyrimidine-4-carbonyl)-octahydro-1H-cyclopenta[b]pyrazin-1-yl]-2-(3,6-dihydro-2H-pyran-4-yl)-5-ethyl-7-oxo-2H,4H,7H-[1,2,3]triazolo[4,5-b]pyridin-4-yl}-N-{3-cyclopropylbicyclo[1.1.1]pentan-1-yl}acetamide]
- EC50 (Homo sapiens): ≤ 0.5 µM

SMILES: CCc1c(N2CCN(C(=O)c3ncnc(C)c3O)[C@H]3CC[C@@H]32)c(=O)c2nn(C3=CCOCC3)nc2n1CC(=O)NC12CC(C(C)(C)C)(C1)C2 [Compound I-196, N-{3-tert-butylbicyclo[1.1.1]pentan-1-yl}-2-[2-(3,6-dihydro-2H-pyran-4-yl)-5-ethyl-6-[(1S,6S)-5-(5-hydroxy-6-methylpyrimidine-4-carbonyl)-2,5-diazabicyclo[4.2.0]octan-2-yl]-7-oxo-2H,4H,7H-[1,2,3]triazolo[4,5-b]pyridin-4-yl]acetamide]
- EC50 (Homo sapiens): ≤ 0.5 µM
